“Also recorded” adds a separate entry of the source.
Assays:
[1] = tested on: mouse lymphatic fibroblast (MLF) cells; settings: 1 uM, FIG. 7E
Protocol: With reference to FIG. 7E, MLF cells having a silenced X chromosome were assayed for reactivation of the Gpc4 gene after incubation with SAHA at 2 uM, RGFP966 at 3 uM, RG2833 (RGFP109) at 300 nM, PCI-24781 (Abexinostat) at 300 nM, CUDC-101 at 400 nM, Resminostat at 100 nM, Mocetinostat (MGCD0103) at 10 uM, HPOB (4-[(hydroxyamino)carbonyl]-N-(2-hydroxyethyl)-N-phenyl-benzeneacetamide) at 5 uM, Entinostat (MS0275) at 2 uM, Droxinostat at 20 uM, 4SC-202 at 2 uM, Trichostatin A (TSA) at 5 uM, Rocilinostat (ACY-1215) at 100 nM, Quisinostat (JNJ-26481585) at 100 nM, or Pracinostat (SB939) at 1 uM.
5,000 Mouse MLF cells were plated on a poly-D-lysine (Sigma) and 0.2% gelatin (Sigma)-coated #1.5 coverslip placed into wells of a 24-well plate containing HEK media (DMEM, 10% Gemini Benchmark FBS, 1×L-glutamine, 1× sodium pyruvate, 1×NEAA, lx Pen/Strep; Life Technologies unless otherwise indicated). After 16 hours, inhibitors were added into the media and incubated the cells for 48 hours. Unless, otherwise indicated, the inhibitors and the concentration used were: 5-Azacytidine (6 μM; Sigma, A2385), 5-Aza-2′-deoxycytidine (0.3 μM; Sigma, A3656), RG 108 (200 μM; Abcam, ab141013), Trichostatin A (5 μM; Sigma, T8552), and Scriptaid (100 nM; Sigma, S7817).

[2] = tested on: mouse post-mitotic neurons; assay: X chromosome reactivation (active PGK1 loci, MeCP2 mRNA) in mouse post-mitotic neurons having a silenced X chromosome; type: cell-based; settings: simultaneous treatment with DNMT1 inhibitor 5-aza-2'-dc
Protocol: (§1) FIG. 7H is a graph of the percentage of reactivated cells (measured as the number of active phosphoglycerate kinase 1 (PGK1) loci for a population of 50 mouse post-mitotic neuronal cells having a silenced X chromosome after the simultaneous treatment of DMSO (as a control), the DNMT1 inhibitor (5-aza-2-dc) and the HDAC inhibitor SAHA or RGFP966 for 48 hours (h), 72 hours, and 7 days as indicated, with the number of active PGK1 loci greater than 2 shown in grey, the number of PGK1 loci equal to 2 shown in orange, and the number of PGK1 loci equal to 1 shown in blue, according to embodiments of the present invention.
FIG. 7I is a graph quantifying the expression level of MeCP2 mRNA in mouse post-mitotic neurons having a silenced X chromosome after simultaneous treatment with DMSO (control), the DNMT1 inhibitor (5-aza-2-dc) and the HDAC inhibitor SAHA or RGFP966 for 7 days for a population of 50 cells, with the relative expression calculated by normalizing reactivated female post-mitotic neurons to male post-mitotic neurons, according to embodiments of the present invention.
Cells were stained for target mRNAs (e.g., X-linked Gpc4 mRNA, X-linked MeCP2 mRNA, or as indicated) and siRNA-targeted mRNA by FISH and imaged. Images were then analyzed using Matlab R2013b (described below). […] The mRNA levels were quantified for 50 individual cells. […]

[3] = tested on: human iPS-derived neurons; assay: X chromosome reactivation (PGK1 and MeCP2 mRNA staining) in human iPS-derived neurons having a silenced X chromosome; type: cell-based; settings: simultaneous treatment with DNMT1 inhibitor 5-aza-2'-dc
Description: FIG. 7K is a graph quantifying the expression level of MeCP2 mRNA in human iPSC-derived neurons having a silenced X chromosome after simultaneous treatment with the DNMT1 inhibitor (5-aza-2-dc) and the HDAC inhibitor SAHA for 7 days for a population of 50 cells, with the relative expression calculated by normalizing the neurons (two spots of active PGK1 loci) to non-reactivated (treated) neurons (one spot of active PGK1 locus), according to embodiments of the present invention.
(§2) Cells were stained for target mRNAs (e.g., X-linked Gpc4 mRNA, X-linked MeCP2 mRNA, or as indicated) and siRNA-targeted mRNA by FISH and imaged. Images were then analyzed using Matlab R2013b (described below). In the case of siRNA targeting, cells were selected if the copy number of the targeted mRNA was less than 30% of the level of the no siRNA treated cells and if they induced Xist expression. Within these cells, the copy number of target mRNAs were quantified using a peak finding method (described below) and compared across conditions. The mRNA levels were quantified for 50 individual cells.
The number of active X chromosomes was determined by RNA FISH with probes against the intronic region of Pgk1/PGK1 RNA using smFISH. […] Once regional maxima were identified, the number of spots was counted for each cell. […]

[4] = tested on: human fibroblast cells; assay: X chromosome reactivation (active PGK1 loci, MeCP2 mRNA) in human fibroblast cells having a silenced X chromosome; type: cell-based; settings: for percentage of reactivated human fibroblasts (active PGK1 loci) with treatment time: simultaneous treatment with 5-aza-2'-dc, 48 h, 72 h, 7 days, FIG. 7F; for activation of the silenced X chromosome: simultaneous treatment with DNMT1 inhibitor 5-aza-2'-dc, human fibroblast cells
Protocol: as §1, with “7F” for “7H”, “human fibroblast” for “mouse post-mitotic neuronal”
FIG. 7G is a graph quantifying the expression level of MeCP2 mRNA (relative to control) of reactivated human fibroblast cells having a silenced X chromosome after simultaneous treatment with DMSO (control), the DNMT1 inhibitor (5-aza-2-dc) and the HDAC inhibitor SAHA or RGFP966 for 7 days for a population of 50 cells, according to embodiments of the present invention.
as §2
The number of active X chromosomes was determined by RNA FISH with probes against the intronic region of Pgk1/PGK1 RNA using smFISH. The spots were then identified using a 2D peak finding algorithm that identifies local maximal signals within the cell. Once regional maxima were identified, the number of spots was counted for each cell. Cells were selected in the G1 phase of the cell cycle by co-immunostaining the cells with Cyclin E antibodies (Abcam; ab33911 for mouse cells; ab32103 for human cells) and selecting Cyclin E positive cells.

[5] = tested on: mouse lymphatic fibroblast (MLF) cells; assay: X-chromosome reactivation assay (single molecule RNA FISH of X-linked mRNA) in MLF cells having silenced X genes; type: cell-based; settings: for reactivation of silenced X-chromosome gene Gpc4 (Gpc4 mRNA) compared with Scriptaid alone: in combination with one of the DNMT1 inhibitors 5-aza, 5-aza-2'-dc, RG108 or SGI-1027, FIGS. 7A-7B
Protocol: Coverslips from siRNA transfection or inhibitor treatment were fixed in Histochoice (Sigma) for 10 min, washed thoroughly in PBS, and dehydrated in ethanol for storage until FISH staining. Single molecule RNA Fluorescence in situ hybridization (FISH) experiments were done using QuantiGene ViewRNA ISH Cell Assay (Affymetrix) and QuantiGene ViewRNA ISH Cell 740 Module (Affymetrix) according to manufacturer's protocol. Specifically, cells fixed on coverslips were first permeabilized with Detergent Solution QC at room temperature for 5 min, and then incubated with desired mixture of probe set (Affymetrix) in Probe Set Diluent QF at 40° C. for 3 h, followed by incubated with PreAmplifier Mix at 40° C. for 30 min, Amplifier Mix at 40° C. for 30 min, and Label Probe Mix at 40° C. for 30 min sequentially. For DAPI staining, coverslips were incubated in 30 nM DAPI in PBS at room temperature for 15-20 min. Probe sets and conjugated fluorophores (excitation wavelengths) for FISH were TYPE 4-GPC4, MECP2, SMC1A (488 nm), TYPE 10-ATRX (740 nm), and TYPE 6-EMD (650 nm). Cells were stained for target mRNAs (e.g., X-linked Gpc4 mRNA, X-linked MeCP2 mRNA, or as indicated) and siRNA-targeted mRNA by FISH and imaged. Images were then analyzed using Matlab R2013b (described below). In the case of siRNA targeting, cells were selected if the copy number of the targeted mRNA was less than 30% of the level of the no siRNA treated cells and if they induced Xist expression. Within these cells, the copy number of target mRNAs were quantified using a peak finding method (described below) and compared across conditions. The mRNA levels were quantified for 50 individual cells. All image analysis was carried out using Matlab (version R2013b) utilizing built-in functions from the Image Processing toolbox. […] Once regional maxima were identified, the number of spots was counted for each cell. The percentage of X-reactivation is calculated by normalizing the average number of spots of each condition to the average number of spots in untreated cells, and subtracting the value by 1.

Structure (SMILES) | activation of the silenced X chromosome [2] | activation of the silenced X chromosome [3] | percentage of reactivated human fibroblasts (active PGK1 loci) with treatment time [4] | activation of the silenced X chromosome [4] | reactivation of silenced X-chromosome gene Gpc4 (Gpc4 mRNA) compared with Scriptaid alone [5] | other results
CCCCc1nc2cc(/C=C/C(=O)NO)ccc2n1CCN(CC)CC [Pracinostat] | – | – | – | – | – | cytotoxicity (cell death) [1]: cytotoxic, causing cell death
Nc1cc(F)ccc1NC(=O)/C=C/c1cnn(C/C=C/c2ccccc2)c1 [RGFP966] | activation of the X chromosome | activation of the X chromosome | increase in reactivation | activation (or re-activation) of the X chromosome | – | –
O=C(CCCCCCC(=O)Nc1ccccc1)NO [SAHA] | activation of the X chromosome | activation of the X chromosome | increase in reactivation | activation (or re-activation) of the X chromosome | – | –
O=C(CCCCCN1C(=O)c2cccc3cccc(c23)C1=O)NO [Scriptaid] | – | – | – | – | reactivated to a higher level of reactivation | reactivation of the Xist-dependent silent Gpc4 gene as measured by levels of Gpc4 mRNA ([5]; HDAC inhibitor alone, FIGS. 7A-7B): expression of Gpc4; also recorded: reactivation of the Xist-dependent silent Gpc4 gene
CC(/C=C/C(=O)NO)=C\[C@@H](C)C(=O)c1ccc(N(C)C)cc1 [Trichostatin A] | – | – | – | – | reactivated to a higher level of reactivation | –
